Data as given in the supplement of paper PMC11451515.

Tested on: NOMO1
Experiment: cell viability relative to DMSO control; higher = less cytotoxic
Settings: 48 h
Method in brief: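 Viability values are per-plate percentages of DMSO wells, with background from cell-free wells. Library compounds in DMSO were pin-dosed, in an 11-point threefold series from 47 μM to 0.79 nM, onto NOMO1 or SEM (500 cells/well) or P12-Ichikawa (1000 cells/well) leukemia cells in 1536-well plates (5 μl). Those cells had been adapted for at least four passages in each medium, and CellTiter-Glo One luminescence was read after 48 h at 37°C.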

[1] = HPLM + 10% dialyzed FBS, 0.000781 µM
[2] = HPLM + 10% dialyzed FBS, 0.00234 µM
[3] = HPLM + 10% dialyzed FBS, 0.00702 µM
[4] = HPLM + 10% dialyzed FBS, 0.0211 µM
[5] = HPLM + 10% dialyzed FBS, 0.0632 µM
[6] = HPLM + 10% dialyzed FBS, 0.19 µM
[7] = HPLM + 10% dialyzed FBS, 0.569 µM
[8] = HPLM + 10% dialyzed FBS, 1.71 µM
[9] = HPLM + 10% dialyzed FBS, 5.12 µM
[10] = HPLM + 10% dialyzed FBS, 15.4 µM
[11] = HPLM + 10% dialyzed FBS, 46.1 µM
[12] = RPMI 5 mM glucose + 10% FBS, 0.000781 µM
[13] = RPMI 5 mM glucose + 10% FBS, 0.00234 µM
[14] = RPMI 5 mM glucose + 10% FBS, 0.00702 µM
[15] = RPMI 5 mM glucose + 10% FBS, 0.0211 µM
[16] = RPMI 5 mM glucose + 10% FBS, 0.0632 µM
[17] = RPMI 5 mM glucose + 10% FBS, 0.19 µM
[18] = RPMI 5 mM glucose + 10% FBS, 0.569 µM
[19] = RPMI 5 mM glucose + 10% FBS, 1.71 µM
[20] = RPMI 5 mM glucose + 10% FBS, 5.12 µM
[21] = RPMI 5 mM glucose + 10% FBS, 15.4 µM
[22] = RPMI 5 mM glucose + 10% FBS, 46.1 µM
[23] = RPMI 5 mM glucose + 10% dialyzed FBS, 0.000781 µM
[24] = RPMI 5 mM glucose + 10% dialyzed FBS, 0.00234 µM
[25] = RPMI 5 mM glucose + 10% dialyzed FBS, 0.00702 µM
[26] = RPMI 5 mM glucose + 10% dialyzed FBS, 0.0211 µM
[27] = RPMI 5 mM glucose + 10% dialyzed FBS, 0.0632 µM
[28] = RPMI 5 mM glucose + 10% dialyzed FBS, 0.19 µM
[29] = RPMI 5 mM glucose + 10% dialyzed FBS, 0.569 µM
[30] = RPMI 5 mM glucose + 10% dialyzed FBS, 1.71 µM
[31] = RPMI 5 mM glucose + 10% dialyzed FBS, 5.12 µM
[32] = RPMI 5 mM glucose + 10% dialyzed FBS, 15.4 µM
[33] = RPMI 5 mM glucose + 10% dialyzed FBS, 46.1 µM

| Structure (SMILES) | cell viability [1] | cell viability [2] | cell viability [3] | cell viability [4] | cell viability [5] | cell viability [6] | cell viability [7] | cell viability [8] | cell viability [9] | cell viability [10] | cell viability [11] | cell viability [12] | cell viability [13] | cell viability [14] | cell viability [15] | cell viability [16] | cell viability [17] | cell viability [18] | cell viability [19] | cell viability [20] | cell viability [21] | cell viability [22] | cell viability [23] | cell viability [24] | cell viability [25] | cell viability [26] | cell viability [27] | cell viability [28] | cell viability [29] | cell viability [30] | cell viability [31] | cell viability [32] | cell viability [33] |
| --- | --- | --- | --- | --- | --- | --- | --- | --- | --- | --- | --- | --- | --- | --- | --- | --- | --- | --- | --- | --- | --- | --- | --- | --- | --- | --- | --- | --- | --- | --- | --- | --- | --- |
| CC[C@H](/C=C/[C@@H](C)[C@H]1CC[C@H]2[C@@H]3CC=C4C[C@@H](O)CC[C@]4(C)[C@H]3CC[C@]12C)C(C)C | 104% | 112% | 110% | 98.9% | 104% | 102% | 97.3% | 96.7% | 80.6% | 73.7% | 58.2% | 89.3% | 94.3% | 101% | 105% | 92.9% | 90.7% | 88.8% | 92.8% | 81.1% | 81.3% | 78.7% | 98.2% | 89.4% | 91.1% | 84.5% | 96.1% | 89.5% | 86% | 95.1% | 94.5% | 68.3% | 69.6% |
| C[C@]12CC[C@@H]3c4ccc(O)cc4CC[C@H]3[C@@H]1[C@@H](O)[C@@H](O)[C@@H]2O | 117% | 121% | 124% | 123% | 121% | 127% | 116% | 128% | 103% | 110% | 102% | – | – | – | – | – | – | – | – | – | – | – | 106% | 138% | 118% | 142% | 140% | 141% | 131% | 134% | 150% | 128% | 130% |
| C[C@]12COC(=O)C[C@@H]1CC[C@@H]1[C@@H]2CC[C@@]2(C)[C@H]1CC[C@]2(C)O | 98% | 109% | 103% | 91.1% | 118% | 98% | 98.6% | 103% | 104% | 97.1% | 80% | 90.7% | 87.1% | 86.4% | 97.3% | 101% | 103% | 95.1% | 101% | 90.8% | 81.2% | 84.1% | 97.6% | 101% | 91.4% | 102% | 103% | 92.2% | 78.2% | 92% | 88.3% | 92.4% | 83.1% |
